Holding throughout (conditions): human
Data set [1] deals with Hepatotoxicity. Nature of the data set: FDA HLAED, liver enzyme composite activity.
Data set [2] relates to Hepatotoxicity. Nature of the data set: FDA HLAED, alkaline phosphatase increase.
The test system of data set [3] is Hepatotoxicity. Nature of the data set: FDA HLAED, serum glutamic oxaloacetic transaminase (SGOT) increase.
Data set [4] deals with Hepatotoxicity. Nature of the data set: FDA HLAED, gamma-glutamyl transferase (GGT) increase.
For data set [5], the system named is Hepatotoxicity. Nature of the data set: FDA HLAED, serum glutamic pyruvic transaminase (SGPT) increase.
For data set [6], the system named is Hepatotoxicity. Nature of the data set: FDA HLAED, lactate dehydrogenase (LDH) increase.

Each structure is given as a SMILES string.

The record followed here is ChEMBL document CHEMBL1697781, “Assessment of the health effects of chemicals in humans: II. Construction of an adverse effects database for QSAR modeling” (Curr Drug Discov Technol, 2004).
Wherever GGT Increase - Index Value is given: reference of the scale not given here.
Wherever LDH Increase - Index Value is given: reference of the scale not given here.

With `CC(=O)O[C@H]1C[C@@H]2CC[C@@H]3[C@H](CC[C@@]4(C)[C@H]3C[C@H]([N+]3(C)CCCCC3)[C@@H]4OC(C)=O)[C@@]2(C)C[C@@H]1N1CCCCC1.[Br-]` [VECURONIUM BROMIDE], in the data set on Hepatotoxicity [1], the “Composite Activity - Active” value is recorded as 0, the “Composite Activity - Marginal” value is recorded as 0 and the “Composite Activity - Score” value is reported as “Inactive”. In addition, in the data set on Hepatotoxicity [2], the “Alkaline Phosphatase Increase - Activity Score” value was “Inactive”, the “Alkaline Phosphatase Increase - Index Value” came to 0 and the “Alkaline Phosphatase Increase - Number of Reports” value is less than 4. In addition, in the data set with Hepatotoxicity [3], the “SGOT Increase - Activity Score” value is on record as “Inactive”, the “SGOT Increase - Index Value” was determined as 1 and the “SGOT Increase - Number of Reports” value is listed as less than 4. In the data set with Hepatotoxicity [4], the “GGT Increase - Activity Score” value is “Inactive”, the “GGT Increase - Index Value” is 0 and the “GGT Increase - Number of Reports” value was less than 4. For the same molecule, in the data set with Hepatotoxicity [5], the “SGPT Increase - Activity Score” value is “Inactive”, the “SGPT Increase - Index Value” is recorded as 1 and the “SGPT Increase - Number of Reports” value is on record as less than 4. In the data set with Hepatotoxicity [6], the “LDH Increase - Activity Score” value is “Inactive”, the “LDH Increase - Index Value” came to 1 and the “LDH Increase - Number of Reports” value was less than 4.
As for `COc1ccc(C(CN(C)C)C2(O)CCCCC2)cc1` (stereo not drawn) [VENLAFAXINE], in the data set on Hepatotoxicity [1], the “Composite Activity - Active” value is listed as 0, the “Composite Activity - Marginal” value worked out at 0 and the “Composite Activity - Score” value was “Inactive”. In the data set with Hepatotoxicity [2], the “Alkaline Phosphatase Increase - Activity Score” value is “Inactive”, the “Alkaline Phosphatase Increase - Index Value” is 1.3 and the “Alkaline Phosphatase Increase - Number of Reports” value is “>= 4”. Also, in the data set with Hepatotoxicity [3], the “SGOT Increase - Activity Score” value was “Inactive”, the “SGOT Increase - Index Value” came out at 2.7 and the “SGOT Increase - Number of Reports” value was “>= 4”. Besides, in the data set on Hepatotoxicity [4], the “GGT Increase - Activity Score” value is “Inactive”, the “GGT Increase - Index Value” is reported as 0.9 and the “GGT Increase - Number of Reports” value is “>= 4”. Also, in the data set on Hepatotoxicity [5], the “SGPT Increase - Activity Score” value was “Inactive”, the “SGPT Increase - Index Value” was 2.3 and the “SGPT Increase - Number of Reports” value is on record as “>= 4”. In the data set on Hepatotoxicity [6], the “LDH Increase - Activity Score” value is recorded as “Inactive”, the “LDH Increase - Index Value” was determined as 0.7 and the “LDH Increase - Number of Reports” value is on record as “>= 4”.
Consider `CCC1=C[C@@H]2CN(C1)Cc1c([nH]c3ccccc13)[C@@](C(=O)OC)(c1cc3c(cc1OC)N(C)[C@H]1[C@@](O)(C(=O)OC)[C@H](OC(C)=O)[C@]4(CC)C=CCN5CC[C@]31[C@@H]54)C2` [VINORELBINE], for which, in the data set on Hepatotoxicity [1], the “Composite Activity - Active” value turned out to be 1, the “Composite Activity - Marginal” value worked out at 0 and the “Composite Activity - Score” value is on record as “Inactive”. In the data set with Hepatotoxicity [2], the “Alkaline Phosphatase Increase - Activity Score” value is listed as “Inactive”, the “Alkaline Phosphatase Increase - Index Value” is 2.8 and the “Alkaline Phosphatase Increase - Number of Reports” value is less than 4. Moreover, in the data set with Hepatotoxicity [3], the “SGOT Increase - Activity Score” value was “Inactive”, the “SGOT Increase - Index Value” turned out to be 0.9 and the “SGOT Increase - Number of Reports” value was less than 4. In addition, in the data set on Hepatotoxicity [4], the “GGT Increase - Activity Score” value was “Inactive”, the “GGT Increase - Index Value” is recorded as 0.9 and the “GGT Increase - Number of Reports” value was less than 4. Besides, in the data set on Hepatotoxicity [5], the “SGPT Increase - Activity Score” value is on record as “Inactive”, the “SGPT Increase - Index Value” was 1.9 and the “SGPT Increase - Number of Reports” value is less than 4. Further, in the data set with Hepatotoxicity [6], the “LDH Increase - Activity Score” value is “Active”, the “LDH Increase - Index Value” came to 4.7 and the “LDH Increase - Number of Reports” value is recorded as “>= 4”.
Consider `COc1cc(C(=O)NS(=O)(=O)c2ccccc2C)ccc1Cc1cn(C)c2ccc(NC(=O)OC3CCCC3)cc12` [ZAFIRLUKAST], for which, in the data set with Hepatotoxicity [1], the “Composite Activity - Active” value was 2, the “Composite Activity - Marginal” value came to 1 and the “Composite Activity - Score” value is recorded as “Active”. Also, in the data set on Hepatotoxicity [2], the “Alkaline Phosphatase Increase - Activity Score” value is “Inactive”, the “Alkaline Phosphatase Increase - Index Value” came out at 2.6 and the “Alkaline Phosphatase Increase - Number of Reports” value was “>= 4”. Also, in the data set with Hepatotoxicity [3], the “SGOT Increase - Activity Score” value is on record as “Active”, the “SGOT Increase - Index Value” was 10.1 and the “SGOT Increase - Number of Reports” value was “>= 4”. Also, in the data set with Hepatotoxicity [4], the “GGT Increase - Activity Score” value is on record as “Inactive”, the “GGT Increase - Index Value” was 0.5 and the “GGT Increase - Number of Reports” value is less than 4. For the same molecule, in the data set on Hepatotoxicity [5], the “SGPT Increase - Activity Score” value is on record as “Active”, the “SGPT Increase - Index Value” is on record as 9.5 and the “SGPT Increase - Number of Reports” value was “>= 4”. In addition, in the data set on Hepatotoxicity [6], the “LDH Increase - Activity Score” value was “Marginally Active”, the “LDH Increase - Index Value” worked out at 3.7 and the “LDH Increase - Number of Reports” value is given as “>= 4”.
For `Nc1ccn([C@H]2CC[C@@H](CO)O2)c(=O)n1` [ZALCITABINE], in the data set with Hepatotoxicity [1] (Liver), the “Composite Activity - Active” value is on record as 1, the “Composite Activity - Marginal” value was determined as 0 and the “Composite Activity - Score” value is “Inactive”. In the data set with Hepatotoxicity [2], the “Alkaline Phosphatase Increase - Activity Score” value is “Inactive”, the “Alkaline Phosphatase Increase - Index Value” was 2.9 and the “Alkaline Phosphatase Increase - Number of Reports” value is given as less than 4. Moreover, in the data set on Hepatotoxicity [3], the “SGOT Increase - Activity Score” value is “Active”, the “SGOT Increase - Index Value” amounted to 5.7 and the “SGOT Increase - Number of Reports” value was “>= 4”. In addition, in the data set with Hepatotoxicity [4], the “GGT Increase - Activity Score” value is on record as “Inactive”, the “GGT Increase - Index Value” came out at 1.4 and the “GGT Increase - Number of Reports” value is on record as less than 4. Also, in the data set on Hepatotoxicity [5], the “SGPT Increase - Activity Score” value is recorded as “Inactive”, the “SGPT Increase - Index Value” came out at 2.9 and the “SGPT Increase - Number of Reports” value was less than 4. Also, in the data set on Hepatotoxicity [6], the “LDH Increase - Activity Score” value is “Inactive”, the “LDH Increase - Index Value” is reported as 1.4 and the “LDH Increase - Number of Reports” value is less than 4.
In the case of `Cc1cn([C@H]2C[C@H](N=[N+]=[N-])[C@@H](CO)O2)c(=O)[nH]c1=O` [ZIDOVUDINE], in the data set with Hepatotoxicity [1], the “Composite Activity - Active” value is 4, the “Composite Activity - Marginal” value is reported as 0 and the “Composite Activity - Score” value is recorded as “Active”. Also, in the data set on Hepatotoxicity [2], the “Alkaline Phosphatase Increase - Activity Score” value is reported as “Active”, the “Alkaline Phosphatase Increase - Index Value” was determined as 5.1 and the “Alkaline Phosphatase Increase - Number of Reports” value is recorded as “>= 4”. In addition, in the data set with Hepatotoxicity [3], the “SGOT Increase - Activity Score” value is “Active”, the “SGOT Increase - Index Value” amounted to 12.7 and the “SGOT Increase - Number of Reports” value was “>= 4”. Moreover, in the data set on Hepatotoxicity [4], the “GGT Increase - Activity Score” value is “Inactive”, the “GGT Increase - Index Value” was found to be 0.9 and the “GGT Increase - Number of Reports” value is less than 4. For the same molecule, in the data set on Hepatotoxicity [5], the “SGPT Increase - Activity Score” value is given as “Active”, the “SGPT Increase - Index Value” is reported as 4.8 and the “SGPT Increase - Number of Reports” value was “>= 4”. In the data set on Hepatotoxicity [6], the “LDH Increase - Activity Score” value is “Active”, the “LDH Increase - Index Value” is 5.7 and the “LDH Increase - Number of Reports” value was “>= 4”.
